In patent publication US20260130901A1, “CGRP RECEPTOR ANTAGONIST FOR THE TREATMENT OF MIGRAINE” (ALLERGAN PHARMACEUTICALS INTERNATIONAL LIMITED, priority 2022, published 2026):

How the values were obtained:
Format in all cases: in vivo, human
[1] = test system: participants with migraine (qualifying prodrome events); assay: Phase 3 crossover study: safety and tolerability, adverse events (safety population)
Protocol: (§1) A phase 3, multicenter, randomized, double-blind, placebo-controlled, crossover study was carried out to evaluate the efficacy, safety, and tolerability of oral ubrogepant in the acute treatment of migraine when administered during the prodrome. The study evaluated whether treatment during the initial phase of a migraine attack (i.e., the prodrome or premonitory phase) prior to the onset of headache, can attenuate the severity of the headache phase and reduce disability.
(§2) Eligible participants were randomized (1:1) to treatment sequences A or B in this crossover study. Participants randomized to Treatment Sequence A received placebo to treat their first qualifying prodrome event and ubrogepant 100 mg to treat their second qualifying prodrome event. For those randomized to Treatment Sequence B, they received the reverse: ubrogepant 100 mg to treat their first qualifying prodrome event and placebo to treat their second qualifying prodrome event.
Participant flow is illustrated in FIG. 2. The safety population included all treated participants who took at least one administration of study drug. The modified intent-to-treat (mITT) population included all randomized participants with at least one assessment of headache occurrence within 24 hours after taking double-blind study drug for at least one qualifying prodrome event. The most common reasons for failure to meet inclusion criteria were: lack of 3 to 16 recorded qualifying prodrome events during screening (144 of 317), failure to report headache of any intensity within 1 to 6 hours following at least 75% of qualifying prodrome events (123 of 317), and participant provided a negative response for the ability (by history) to identify migraine attacks in which prodromal symptoms were present and reliably (at least 75% of the time) followed by headache within 1 to 6 hours (23 of 317
Tables 20 and 21 provide an overall summary of adverse events during the double-blind treatment period for the safety population.
The most common TEAEs (≥2% in either treatment group) within 48 hours following administration of study intervention were nausea (placebo 15 of 462 [3.2%], ubrogepant 23 of 456 [5.0%]); dizziness (placebo 12 of 462 [2.6%], ubrogepant 11 of 456 [2.4%]), fatigue (placebo 7 of 462 [1.5%], ubrogepant 12 of 456 [2.6%]) and somnolence (placebo 5 of 462 [1.1%], ubrogepant 11 of 456 [2.4%]). Nausea (placebo 3.7%, ubrogepant 5.3%) was also the most common TEAE within 30 days following administration of study intervention.

[2] = test system: participants with migraine (qualifying prodrome events); assay: Phase 3 crossover study: activity limitation at 24 hours; conditions: 100 mg in prodrome, at 24 hours post-dose
Protocol: as §1, §2

[3] = test system: participants with migraine (qualifying prodrome events); assay: Phase 3 crossover study: satisfaction with study medication; conditions: 100 mg in prodrome
Protocol: as §1, §2

[4] = test system: participants with migraine (qualifying prodrome events); assay: Phase 3 crossover study: ability to function normally (Functional Disability Scale); conditions: 100 mg in prodrome, mITT
Protocol: as §1, §2
The primary efficacy endpoint was the absence of a headache of moderate/severe intensity within 24 hours after taking double-blind study intervention during the prodrome. The secondary efficacy endpoints were the absence of a headache of moderate or severe intensity within 48 hours, ability to function normally over 24 hours, and absence of a headache of any intensity within 24 hours after taking double blind study interventions during the prodrome.
A responder for ability to function normally is a participant having a score of 0 (no disability, able to function normally) on the Functional Disability Scale (FDS), and a non-responder is one having a score of 1 (Mildly impaired, can still do everything but with difficulty) to 3 (Severely impaired, cannot do all or most things, bed rest may be necessary).

[5] = test system: participants with migraine (qualifying prodrome events); assay: Phase 3 crossover study: absence of aura at timepoints post dose; conditions: 100 mg in prodrome, mITT
Protocol: as §1, §2
N1 is the number of patients with non-missing aura presence assessment at timepoint.

[6] = 100 mg, within 48 hours following administration
[7] = 100 mg, within 48 hours following administration, safety population
[8] = ubrogepant 100 mg (N = 456), within 48 hours following administration, safety population
[9] = ubrogepant 100 mg (N = 456), within 30 days following administration, safety population

C[C@@H]1[C@H](c2ccccc2)C[C@H](NC(=O)c2cnc3c(c2)C[C@@]2(C3)C(=O)Nc3ncccc32)C(=O)N1CC(F)(F)F [Ubrogepant, (3′S)—N-((3S,5S,6R)-6-methyl-2-oxo-5-phenyl-1-(2,2,2-trifluoroethyl)piperidin-3-yl)-2′-oxo-1′,2′,5,7-tetrahydrospiro[cyclopenta[b]pyridine-6,3′-pyrrolo[2,3-b]pyridine]-3-carboxamide]
Safety results ([1]; 100 mg in prodrome): generally consistent with the known safety profile of ubrogepant | Tolerability ([1]; 100 mg in prodrome): well-tolerated | nausea, fatigue, dizziness, and somnolence, % of participants reporting ([1]; 100 mg in prodrome): ≤ 5% | TEAE dizziness, % of participants [1, 6]: 2.4% | TEAE fatigue, % of participants [1, 6]: 2.6% | TEAE nausea, % of participants [1, 6]: 5.0% | TEAE somnolence, % of participants [1, 6]: 2.4% | Adverse event leading to discontinuation (ADO), % of participants [1, 7]: (0.0) % | Death, % of participants [1, 7]: (0.0) % | Treatment-emergent Serious adverse events (TESAE), % of participants [1, 7]: (0.0) % | Treatment-emergent adverse events (TEAE), % of participants [1, 7]: (16.9) % | Treatment-related TEAEs, % of participants [1, 7]: (13.2) % | Treatment-related TESAEs, % of participants [1, 7]: (0.0) % | TEAE nausea, % of participants ([1]; 100 mg, within 30 days following administration): 5.3% | Discontinuation during the DB treatment period due to adverse events ([1]; safety population): No participant was discontinued | TEAE Dizziness, % [1, 8]: (2.4) % | TEAE Fatigue, % [1, 8]: (2.6) % | TEAE Nausea, % [1, 8]: (5.0) % | TEAE Somnolence, % [1, 8]: (2.4) % | Adverse event leading to discontinuation (ADO), % [1, 9]: (0.0) % | Death, % [1, 9]: (0.0) % | TEAE Dizziness, % [1, 9]: (2.4) % | TEAE Fatigue, % [1, 9]: (2.6) % | TEAE Nausea, % [1, 9]: (5.3) % | TEAE Somnolence, % [1, 9]: (2.4) % | Treatment-emergent Serious adverse events (TESAE), % [1, 9]: (0.0) % | Treatment-emergent adverse events (TEAE), % [1, 9]: (19.7) % | Treatment-related TEAEs, % [1, 9]: (13.2) % | Treatment-related TESAEs, % [1, 9]: (0.0) % | Activity limitation, Odds ratio vs placebo [2]: 2.07 | Activity limitation, Responders (%) (not at all limited or a little limited) [2]: (65.4) % | Activity limitation, Responders (%) (not at all limited or a little limited) ([2]; listed as ubrogepant): 65.4% | Satisfaction with study medication, Odds ratio vs placebo ([3]; 8 Hours post-dose): 2.37 | Satisfaction with study medication, responder rate (%) (satisfied or extremely satisfied) ([3]; 8 Hours post-dose): (66.0) % | Satisfaction with study medication, Odds ratio vs placebo ([3]; 24 Hours post-dose): 2.32 | Satisfaction with study medication, responder rate (%) (satisfied or extremely satisfied) ([3]; 24 Hours post-dose): (65.6) % | Satisfaction with study medication, responder rate (%) (satisfied or extremely satisfied) ([3]; 24 Hours post-dose, listed as ubrogepant): 65.6% | Ability to function normally, Nonresponder (%) ([4]; 1 hour post dose): (74.4) % | Ability to function normally, Odds Ratio vs. Placebo ([4]; 1 hour post dose): 1.29 | Ability to function normally, Responder (%) ([4]; 1 hour post dose): (25.6) % | Ability to function normally, Nonresponder (%) ([4]; 2 hours post dose): (63.0) % | Ability to function normally, Odds Ratio vs. Placebo ([4]; 2 hours post dose): 1.73 | Ability to function normally, Responder (%) ([4]; 2 hours post dose): (37.0) % | Ability to function normally, Responder (%) ([4]; 2 hours post dose, listed as ubrogepant): 37.0% | Ability to function normally, Nonresponder (%) ([4]; 3 hours post dose): (51.7) % | Ability to function normally, Odds Ratio vs. Placebo ([4]; 3 hours post dose): 1.71 | Ability to function normally, Responder (%) ([4]; 3 hours post dose): (48.3) % | Ability to function normally, Nonresponder (%) ([4]; 4 hours post dose): (41.0) % | Ability to function normally, Odds Ratio vs. Placebo ([4]; 4 hours post dose): 1.97 | Ability to function normally, Responder (%) ([4]; 4 hours post dose): (59.0) % | Ability to function normally, Nonresponder (%) ([4]; 6 hours post dose): (32.7) % | Ability to function normally, Odds Ratio vs. Placebo ([4]; 6 hours post dose): 1.78 | Ability to function normally, Responder (%) ([4]; 6 hours post dose): (67.3) % | Ability to function normally, Nonresponder (%) ([4]; 8 hours post dose): (25.0) % | Ability to function normally, Odds Ratio vs. Placebo ([4]; 8 hours post dose): 1.84 | Ability to function normally, Responder (%) ([4]; 8 hours post dose): (75.0) % | Ability to function normally, Nonresponder (%) ([4]; 24 hours post dose): (11.1) % | Ability to function normally, Odds Ratio vs. Placebo ([4]; 24 hours post dose): 1.41 | Ability to function normally, Responder (%) ([4]; 24 hours post dose): (88.9) % | Ability to function normally over 24 hours, Geometric Mean Odds Ratio vs. Placebo ([4]; overall, all timepoints through 24 hours): 1.66 | Absence of aura, Nonresponder (%) ([5]; 48 Hours post dose): (2.6) % | Absence of aura, OR vs placebo ([5]; 48 Hours post dose): 3.05 | Absence of aura, Responder (%) ([5]; 48 Hours post dose): (97.4) % | Absence of aura, Nonresponder (%) ([5]; 1 hour post dose): (38.3) % | Absence of aura, OR vs placebo ([5]; 1 hour post dose): 0.99 | Absence of aura, Responder (%) ([5]; 1 hour post dose): (61.7) % | Absence of aura, Nonresponder (%) ([5]; 2 hours post dose): (28.1) % | Absence of aura, OR vs placebo ([5]; 2 hours post dose): 1.13 | Absence of aura, Responder (%) ([5]; 2 hours post dose): (71.9) % | Absence of aura, Nonresponder (%) ([5]; 3 hours post dose): (23.0) % | Absence of aura, OR vs placebo ([5]; 3 hours post dose): 0.96 | Absence of aura, Responder (%) ([5]; 3 hours post dose): (77.0) % | Absence of aura, Nonresponder (%) ([5]; 4 hours post dose): (19.1) % | Absence of aura, OR vs placebo ([5]; 4 hours post dose): 1.12 | Absence of aura, Responder (%) ([5]; 4 hours post dose): (80.9) % | Absence of aura, Nonresponder (%) ([5]; 6 hours post dose): (15.3) % | Absence of aura, OR vs placebo ([5]; 6 hours post dose): 1.05 | Absence of aura, Responder (%) ([5]; 6 hours post dose): (84.7) % | Absence of aura, Nonresponder (%) ([5]; 8 hours post dose): (10.5) % | Absence of aura, OR vs placebo ([5]; 8 hours post dose): 1.10 | Absence of aura, Responder (%) ([5]; 8 hours post dose): (89.5) % | Absence of aura, Nonresponder (%) ([5]; 24 hours post dose): (5.3) % | Absence of aura, OR vs placebo ([5]; 24 hours post dose): 1.48 | Absence of aura, Responder (%) ([5]; 24 hours post dose): (94.7) %
